SMILES strings stand for the structures. A value given as a limit tells only on which side of the number the result lay.

The first assay concerns HCT-116 Firefly-luciferase reporter cells. Nature of the assay: Cellular c-MYC Reporter Assay. Particulars: Homo sapiens; untitled table following Table 8a; HCT-116 Firefly-luciferase reporter cells, 24 h; read-out: pIC50 (converted). Type of assay: cell-based. The method, then:
HCT-116 Firefly-luciferase reporter cells (BPS Bioscience) were seeded in 96-well tissue-culture treated sterile plates (Greiner Bio-One) at 5e4 cells/mL in 100 μL complete growth media (McCoy's 5A+10% FBS, +1% Pen-Strep, +1% G418). Cells were incubated at 37° C. with 5% CO2 for 4-6 h then treated with 3× compound solution in 50 μL complete growth media for a final volume of 150 μL per well with 0.2% DMSO. After 24 h incubation at 37° C. with 5% CO2, plates were allowed to equilibrate to RT for 20 min then developed by addition of 100 μL ONE-Glo Luciferase detection reagent (Promega), incubated at RT for 10 min. Luminescence was recorded using a SpectraMax i3x plate reader (Molecular Devices) and analyzed using Prism GraphPad 9 software.
In general terms: Reporter assays use an easily measured gene product as a stand-in for the process of interest.
On to `Cn1cc(-c2ccc3c(N(C(=O)c4ccc(-n5nnc6cccnc65)cc4F)[C@@H]4CCCNC4)nccc3c2)cn1` [Example 97, (R)-4-(3H-[1,2,3]triazolo[4,5-b]pyridin-3-yl)-2-fluoro-N-(6-(1-methyl-1H-pyrazol-4-yl)isoquinolin-1-yl)-N-(piperidin-3-yl)benzamide], for which the IC50 is 380 nM.
In the case of `CCOC(=O)/C=C/c1ccc2c(N(C(=O)c3ccc(-n4nnc5cccnc54)cc3F)[C@@H]3CCCNC3)nccc2c1` [Example 98, ethyl (R,E)-3-(1-(4-(3H-[1,2,3]triazolo[4,5-b]pyridin-3-yl)-2-fluoro-N-(piperidin-3-yl)benzamido)isoquinolin-6-yl)acrylate], the IC50 is 759 nM.
As to `CC(C)(C)[Si](C)(C)OC/C=C/c1cc2c(N(C(=O)c3ccc(-n4nnc5cccnc54)cc3F)[C@@H]3CCCNC3)nccc2s1` [Example 99, (R,E)-4-(3H-[1,2,3]triazolo[4,5-b]pyridin-3-yl)-N-(2-(3-((tert-butyldimethylsilyl)oxy)prop-1-en-1-yl)thieno[3,2-c]pyridin-4-yl)-2-fluoro-N-(piperidin-3-yl)benzamide], the IC50 is 2000 nM.
For the compound `CCOC(=O)/C=C/c1cccc2ccnc(N(C(=O)c3ccc(-c4cn(C)nn4)cc3)[C@@H]3CCCNC3)c12` [Example 100, ethyl (R,E)-3-(1-(4-(1-methyl-1H-1,2,3-triazol-4-yl)-N-(piperidin-3-yl)benzamido)isoquinolin-8-yl)acrylate], the IC50 was 1170 nM.
In the case of `Cn1cc(-c2ccc(C(=O)N(c3ncccc3-c3cc[nH]n3)[C@@H]3CCCNC3)cc2)nn1` [Example 101, (R)—N-(3-(1H-pyrazol-3-yl)pyridin-2-yl)-4-(1-methyl-1H-1,2,3-triazol-4-yl)-N-(piperidin-3-yl)benzamide], the IC50 was greater than 10000 nM.
For `C=Cc1cccc2ccnc(N(C(=O)c3ccc(-n4nnc5cccnc54)cc3F)[C@@H]3CCCNC3)c12` [Example 102, (R)-4-(3H-[1,2,3]triazolo[4,5-b]pyridin-3-yl)-2-fluoro-N-(piperidin-3-yl)-N-(8-vinylisoquinolin-1-yl)benzamide], the IC50 was 46.8 nM.
For `O=C(c1ccc(-n2nnc3cccnc32)cc1F)N(c1nccc2ccc(C#CCO)cc12)[C@@H]1CCCNC1` [Example 103, (R)-4-(3H-[1,2,3]triazolo[4,5-b]pyridin-3-yl)-2-fluoro-N-(7-(3-hydroxyprop-1-yn-1-yl)isoquinolin-1-yl)-N-(piperidin-3-yl)benzamide], the IC50 is 776 nM.
`O=C(c1ccc(-n2nnc3cccnc32)cc1F)N(c1ncccc1/C=C/CCO)[C@@H]1CCCNC1` [Example 104, 2-fluoro-N-[3-[(E)-4-hydroxybut-1-enyl]-2-pyridyl]-N-[(3R)-3-piperidyl]-4-(triazolo[4,5-b]pyridin-3-yl)benzamide]: the IC50 is 8910 nM.
Same read-out and setting: under `O=C(c1ccc(-n2nnc3cccnc32)cc1F)N(c1ncccc1C#CCCO)[C@@H]1CCCNC1` [Example 105, 2-fluoro-N-[3-(4-hydroxybut-1-ynyl)-2-pyridyl]-N-[(3R)-3-piperidyl]-4-(triazolo[4,5-b]pyridin-3-yl)benzamide] stands 6310 nM.

In another assay the test system is MV-4-11 cells. Nature of the assay: Cell Viability Assay in MV-4-11 Cells. The format is cell-based. Particulars: Homo sapiens, MV4-11, 72 h, MV-4-11 cells, 72 h, Cell-Titer Glo; read-out: IC50. In outline: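 MV-4-11 cells at 7,000/well in IMDM with 10% FBS, exposed to compound for 72 h. Viability by CellTiter-Glo luminescence, normalized to DMSO as 100%, fitted with a four-parameter curve.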
`Cc1cccc2ccnc(N(C(=O)c3ccc(Nc4nccc(CN5CCCC5)n4)cc3F)[C@@H]3CCCNC3)c12` [Example 961, (R)-2-fluoro-N-(8-methylisoquinolin-1-yl)-N-(piperidin-3-yl)-4-((4-(pyrrolidin-1-ylmethyl)pyrimidin-2-yl)amino)benzamide]: the IC50 worked out at 38 nM.
As to `Cc1cccc2ccnc(N(C(=O)c3ccc(Nc4nccc(N5CCC(c6ccncc6)CC5)n4)cc3F)[C@@H]3CCCNC3)c12` [Example 962, (R)-2-fluoro-N-(8-methylisoquinolin-1-yl)-N-(piperidin-3-yl)-4-((4-(4-(pyridin-4-yl)piperidin-1-yl)pyrimidin-2-yl)amino)benzamide], the IC50 stood at 15 nM.
Still for that read-out and setting: to `Cc1cccc2ccnc(N(C(=O)c3ccc(Nc4nccc(N5CCC(C)(CO)CC5)n4)cc3F)[C@@H]3CCCNC3)c12` [Example 963, 2-fluoro-4-({4-[4-(hydroxymethyl)-4-methylpiperidin-1-yl]pyrimidin-2-yl}amino)-N-(8-methylisoquinolin-1-yl)-N-[(3R)-piperidin-3-yl]benzamide] belongs 12 nM; to `COCC1CCN(c2ccnc(Nc3ccc(C(=O)N(c4nccc5cccc(C)c45)[C@@H]4CCCNC4)c(F)c3)n2)CC1` [Example 964, (R)-2-fluoro-4-((4-(4-(methoxymethyl)piperidin-1-yl)pyrimidin-2-yl)amino)-N-(8-methylisoquinolin-1-yl)-N-(piperidin-3-yl)benzamide], 64 nM; to `COC(=O)[C@H]1CCCN1c1ccnc(Nc2ccc(C(=O)N(c3nccc4cccc(C)c34)[C@@H]3CCCNC3)c(F)c2)n1` [Example 965, methyl (2-((3-fluoro-4-((8-methylisoquinolin-1-yl)((R)-piperidin-3-yl)carbamoyl)phenyl)amino)pyrimidin-4-yl)-D-prolinate], 130 nM.
As for `Cc1cccc2ccnc(N(C(=O)c3ccc(Nc4nccc(N5CCC[C@@H]5CO)n4)cc3F)[C@@H]3CCCNC3)c12` [Example 966, 2-fluoro-4-({4-[(2R)-2-(hydroxymethyl)pyrrolidin-1-yl]pyrimidin-2-yl}amino)-N-(8-methylisoquinolin-1-yl)-N-[(3R)-piperidin-3-yl]benzamide], the IC50 worked out at 32 nM.
`Cc1cccc2ccnc(N(C(=O)c3ccc(Nc4nccc(N5CC[C@H](N(C)C)C5)n4)cc3F)[C@@H]3CCCNC3)c12` [Example 967, 4-({4-[(3S)-3-(dimethylamino)pyrrolidin-1-yl]pyrimidin-2-yl}amino)-2-fluoro-N-(8-methylisoquinolin-1-yl)-N-[(3R)-piperidin-3-yl]benzamide]: the IC50 is 48 nM.
On to `Cc1cccc2ccnc(N(C(=O)c3ccc(Nc4ncnc(N5CCCC5)n4)cc3F)[C@@H]3CCCNC3)c12` [Example 968, 2-fluoro-N-(8-methylisoquinolin-1-yl)-N-[(3R)-piperidin-3-yl]-4-{[4-(pyrrolidin-1-yl)-1,3,5-triazin-2-yl]amino}benzamide], for which the IC50 came to 40 nM.
Take `Cc1cccc2ccnc(N(C(=O)c3ccc(Nc4ncnc(N5CCCCC5)n4)cc3F)[C@@H]3CCCNC3)c12` [Example 969, 2-fluoro-N-(8-methylisoquinolin-1-yl)-4-{[4-(piperidin-1-yl)-1,3,5-triazin-2-yl]amino}-N-[(3R)-piperidin-3-yl]benzamide]: the IC50 turned out to be 45 nM.
As to `Cc1cccc2ccnc(N(C(=O)c3ccc(Nc4ncnc(N5CCOCC5)n4)cc3F)[C@@H]3CCCNC3)c12` [Example 970, 2-fluoro-N-(8-methylisoquinolin-1-yl)-4-{[4-(morpholin-4-yl)-1,3,5-triazin-2-yl]amino}-N-[(3R)-piperidin-3-yl]benzamide], the IC50 was determined as 34 nM.
Consider `Cc1cccc2ccnc(N(C(=O)c3ccc(Nc4ncnc(-c5ccccc5)n4)cc3F)[C@@H]3CCCNC3)c12` [Example 971, (R)-2-fluoro-N-(8-methylisoquinolin-1-yl)-4-(4-phenyl-1,3,5-triazin-2-ylamino)-N-(piperidin-3-yl)benzamide], for which the IC50 was determined as 107 nM.
As for `Cc1cccc2ccnc(N(C(=O)c3ccc(Nc4nccc(CN5CCC(F)(F)CC5)n4)cc3)[C@@H]3CCCNC3)c12` [Example 972, (R)-4-((4-((4,4-difluoropiperidin-1-yl)methyl)pyrimidin-2-yl)amino)-N-(8-methylisoquinolin-1-yl)-N-(piperidin-3-yl)benzamide], the IC50 turned out to be 213 nM.
